Holding throughout (assay type): cell-based, mouse
The test system of experiment [1] is β-galactosidase in CMV-LacZ C2C12 myoblasts. The experiment in a line: CMV-LacZ secondary screen in C2C12 myoblasts (β-Gal stabilizing assay). The note with it: CMV-LacZ C2C12 myoblasts. A digest of the protocol:
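First, C2C12 myoblasts were transfected with a linearized CMV-LACZ vector and clonal lines selected by FDG β-gal assay. Then cells were exposed to compounds at 0.5, 1, 5, 10, 20 and 40 μM in 96-well format, two replicates each, and β-gal measured.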

Experiment [2] has as its system α7 integrin (LacZ reporter in α7βgal+/− myoblasts). The experiment in a line: Myoblast α7+/LacZ integrin FDG assay (Burkin assay in myoblasts, 96-well). The note with it: α7+/LacZ myoblasts, 96-well.
Experiment [3] concerns β-galactosidase in CMV-LacZ C2C12 myotubes. The experiment in a line: CMV-LacZ secondary screen in C2C12 myotubes (β-Gal stabilizing assay). Particulars: C2C12 CMV-LacZ myotubes, fold relative to DMSO. A digest of the protocol:
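Dose-response runs at 0.5–40 μM (0.5, 1, 5, 10, 20, 40 μM; N=2 per point) used a clonal C2C12 line carrying CMV-LacZ. Cells were assayed as myoblasts or as differentiated myotubes, and β-galactosidase levels were read with the FDG fluorogenic substrate.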

The subject of experiment [4] is α7 integrin (LacZ reporter in α7+/LacZ myotubes). The experiment in a line: Myotube α7 integrin FDG assay (Burkin assay in myotubes, 96-well). The note with it: myotubes.

`COc1cc(/C=C/CN2CCN(Cc3ccc(C)o3)C(CCO)C2)ccc1O` (stereo not drawn) [MLS000693704-01]: the “CMV-LACZ in Myoblasts (β-galactosidase activity relative to DMSO)” value turned out to be 0.8989 in experiment [1] (0.5 uM); 1.1157 in experiment [1] (1 uM); 0.9522 in experiment [1] (5 uM); 0.9977 in experiment [1] (10 uM); 0.7996 in experiment [1] (20 uM); 1.0567 in experiment [1] (40 uM). Besides, the “Burkin Assay in Myoblasts, signal relative to DMSO” value worked out at 1.428 in experiment [2] (0.5 uM); 1.153 in experiment [2] (1 uM); 1.1427 in experiment [2] (5 uM); 0.9418 in experiment [2] (10 uM); 0.8473 in experiment [2] (20 uM); 0.8019 in experiment [2] (40 uM). Moreover, the “CMV-LACZ in Myotubes, signal relative to DMSO” value is recorded as 0.8571 in experiment [3] (0.5 uM); 0.8695 in experiment [3] (1 uM); 1.1170 in experiment [3] (5 uM); 1.0812 in experiment [3] (10 uM); 1.1647 in experiment [3] (20 uM); 1.0600 in experiment [3] (40 uM). In addition, the “Burkin Assay in Myotubes, α7 integrin LacZ reporter signal relative to DMSO” value was 0.9315 in experiment [4] (0.5 uM); 1.0787 in experiment [4] (1 uM); 1.003 in experiment [4] (5 uM); 0.923 in experiment [4] (10 uM); 0.9587 in experiment [4] (20 uM); 0.8263 in experiment [4] (40 uM).

`Cc1ccccc1NC(=O)c1ccc2c(O)c(S(=O)(=O)c3ccccc3)c(=O)[nH]c2c1` [MLS001122698-01]: the “CMV-LACZ in Myoblasts (β-galactosidase activity relative to DMSO)” value in experiment [1] (0.5 uM) is reported as 1.1513; in experiment [1] (1 uM) it was 1.1003; in experiment [1] (5 uM), 0.7759; in experiment [1] (10 uM) it was 0.8608; in experiment [1] (20 uM), 1.0404; in experiment [1] (40 uM), 1.0639. Besides, the “Burkin Assay in Myoblasts, signal relative to DMSO” value in experiment [2] (0.5 uM) amounted to 0.9829; in experiment [2] (1 uM), 0.8573; in experiment [2] (5 uM) it was 1.008; in experiment [2] (10 uM), 0.9652; in experiment [2] (20 uM), 0.9061; in experiment [2] (40 uM) it was 0.8389. Besides, the “CMV-LACZ in Myotubes, signal relative to DMSO” value in experiment [3] (0.5 uM) stood at 1.0019; in experiment [3] (1 uM) it was 1.0133; in experiment [3] (5 uM) it was 1.2038; in experiment [3] (10 uM) it was 1.1482; in experiment [3] (20 uM), 1.0340; in experiment [3] (40 uM), 1.0110. Besides, the “Burkin Assay in Myotubes, α7 integrin LacZ reporter signal relative to DMSO” value in experiment [4] (0.5 uM) is recorded as 0.9131; in experiment [4] (1 uM), 0.9039; in experiment [4] (5 uM), 0.9575; in experiment [4] (10 uM) it was 1.03; in experiment [4] (20 uM), 0.9209; in experiment [4] (40 uM), 0.8572.

For the origin of these results see US9980943B2, “Methods of treating muscular dystrophy” (BOARD OF REGENTS OF THE NEVADA SYSTEM OF HIGHER EDUCATION, …, priority 2013, dated 2018).
